Measurements from patent US20130116231A1, “TYROSINE KINASE INHIBITORS” (Merck Sharp & Dohme Corp., priority 2010, published 2013).

What follows are compounds tested against T1, human c-Met (Homo sapiens, UniProt P08581) (assay: in vitro kinase assay (homogeneous time-resolved tyrosine kinase assay, METKA)). Conditions: recombinant GST-tagged c-Met cytosolic domain, HTRF, 50 μM MgATP; read-out: Biological Activity (METKA IC50) Activity Code.
T1 construct: Recombinant GST-tagged cytosolic domains of human c-Met; 6xHis; made in house; host or cells: Sf9 or Sf21 insect cells (baculovirus)
Format: biochemical
Procedure, shortened: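 HTRF assay with GST-tagged cytosolic c-Met domain (0.2 nM), 0.5 μM biotinylated peptide, 50 μM MgATP, pH 7.4, 5% DMSO, 80 min at room temperature; Eu-anti-pTyr/SA-APC detection, IC50 by 4-parameter fit. Other kinases identical except enzyme level: mouse c-Met 0.2, Ron 2.5, KDR 8, IGFR 0.24, EGFR 0.24, FGFR 0.14, Mer 16, TrkA 8, Tie2 8 nM.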

T1 sequence (P08581 956-1390 limits assumed): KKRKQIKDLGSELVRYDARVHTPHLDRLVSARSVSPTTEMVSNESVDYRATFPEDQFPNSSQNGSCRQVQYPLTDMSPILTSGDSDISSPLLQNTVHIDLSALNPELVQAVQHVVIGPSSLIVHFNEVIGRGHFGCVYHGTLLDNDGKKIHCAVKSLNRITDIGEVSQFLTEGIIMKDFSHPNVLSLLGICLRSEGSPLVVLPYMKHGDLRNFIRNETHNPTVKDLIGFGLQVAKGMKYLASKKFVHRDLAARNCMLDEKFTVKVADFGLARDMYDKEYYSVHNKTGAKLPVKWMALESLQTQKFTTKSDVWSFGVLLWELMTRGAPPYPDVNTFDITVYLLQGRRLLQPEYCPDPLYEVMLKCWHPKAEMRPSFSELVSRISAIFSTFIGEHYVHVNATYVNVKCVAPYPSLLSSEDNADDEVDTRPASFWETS

| IC50 | Compound |
| --- | --- |
| < 100 nM | COCCOc1cnc2ccc(OCc3nn(-c4cnn(C)c4)ccc3=O)cc2n1 [Example 106, 3-({[3-(2-methoxyethoxy)quinoxalin-6-yl]oxy}methyl)-1-(1-methyl-1H-pyrazol-4-yl)pyridazin-4(1H)-one] |
| < 100 nM | CCOc1ccnc2ccc(OCc3nn(-c4cnn(C)c4)ccc3=O)cc12 [Example 43, 3-{[(4-Ethoxyquinolin-6-yl)oxy]methyl}-1-(1-methyl-1H-pyrazol-4-yl)pyridazin-4(1H)-one] |
| < 100 nM | Cn1cc(-n2ccc(=O)c(COc3ccc4ncc(OC5COC5)cc4c3)n2)cn1 [Example 63, 1-(1-Methyl-1H-pyrazol-4-yl)-3-({[3-(oxetan-3-yloxy)quinolin-6-yl]oxy}methyl)pyridazin-4(1H)-one] |
| < 100 nM | CCn1cc(-n2ccc(=O)c(COc3ccc4ncc(OCCOC)cc4c3)n2)cn1 [Example 36, 1-(1-ethyl-1H-pyrazol-4-yl)-3-({[3-(2-methoxyethoxy)quinolin-6-yl]oxy}methyl)pyridazin-4(1H)-one] |
| < 100 nM | N#Cc1cccc(-n2ccc(=O)c(COc3ccc4ncccc4c3)n2)c1 [Example 3, 3-{4-oxo-3-[(quinolin-6-yloxy)methyl]pyridazin-1(4H)-yl}benzonitrile] |
| < 100 nM | Cn1cc(-n2ccc(=O)c(COc3ccc4ncc(O)cc4c3)n2)cn1 [Example 61, 3-Hydroxy-6-{[1-(1-methyl-1H-pyrazol-4-yl)-4-oxo-1,4-dihydropyridazin-3-yl]methoxy}quinolinium chloride] |
| < 100 nM | Cc1cnc2ccc(OCc3nn(-c4cnn(C)c4)ccc3=O)cc2c1 [Example 71, 1-(1-Methyl-1H-pyrazol-4-yl)-3-{[(3-methylquinolin-6-yl)oxy]methyl}pyridazin-4(1H)-one] |
| < 100 nM | CCn1cc(-n2ccc(=O)c(COc3ccc4ncc(-c5ccncc5)cc4c3)n2)cn1 [Example 80, 1-(1-ethyl-1H-pyrazol-4-yl)-3-{[(3-pyridin-4-ylquinolin-6-yl)oxy]methyl}pyridazin-4(1H)-one] |
| < 100 nM | COCCOc1cnc2ccc(CCc3nn(-c4cnn(C)c4)ccc3=O)cc2c1 [Example 57, 3-{2-[3-(2-methoxyethoxy)quinolin-6-yl]ethyl}-1-(1-methyl-1H-pyrazol-4-yl)pyridazin-4(1H)-one] |
| 1000 to 3000 nM | Cn1cc(-n2ccc(=O)c(COc3cc(F)c4ncccc4c3)n2)cn1 [Example 32, 3-{[(8-fluoroquinolin-6-yl)oxy]methyl}-1-(1-methyl-1H-pyrazol-4-yl)pyridazin-4(1H)-one] |
| < 100 nM | COCCOc1cnc2ccc(OCc3nn(-c4cnn(C)c4)ccc3=O)cc2c1 [Example 24, 3-({[3-(2-methoxyethoxy)quinolin-6-yl]oxy}methyl)-1-(1-methyl-1H-pyrazol-4-yl)pyridazin-4(1H)-one] |
| < 100 nM | O=c1ccn(-c2cccc(Br)c2)nc1COc1ccc2ncccc2c1 [Example 20, 1-(3-Bromophenyl)-3-[(quinolin-6-yloxy)methyl]pyridazin-4(1H)-one] |
| < 100 nM | Cn1cc(-n2ccc(=O)c(COc3ccc4nccnc4c3)n2)cn1 [Example 11, 1-(1-methyl-1H-pyrazol-4-yl)-3-[(quinoxalin-6-yloxy)methyl] pyridazin-4(1H)-one] |
| 100 to 1000 nM | CCOCCOc1ccnc2ccc(OCc3nn(-c4cnn(C)c4)ccc3=O)cc12 [Example 33, 3-({[4-(2-ethoxyethoxy)quinolin-6-yl]oxy}methyl)-1-(1-methyl-1H-pyrazol-4-yl)pyridazin-4(1H)-one] |
| < 100 nM | CCn1cc(-n2ccc(=O)c(COc3ccc4ncc(-c5ccc(S(C)(=O)=O)cc5)cc4c3)n2)cn1 [Example 76, 1-(1-Ethyl-1H-pyrazol-4-yl)-3-[({3-[4-(methylsulfonyl)phenyl]quinolin-6-yl}oxy)methyl]pyridazin-4(1H)-one] |
| < 100 nM | Cc1ccnc2ccc(OCc3nn(-c4cnn(C)c4)ccc3=O)cc12 [Example 50, 1-(1-methyl-1H-pyrazol-4-yl)-3-{[(4-methylquinolin-6-yl)oxy]methyl}pyridazin-4(1H)-one] |
| < 100 nM | Cn1cc(-n2ccc(=O)c(COc3ccc4ncc(-c5cnn(C6CCNCC6)c5)cc4c3)n2)cn1 [Example 94, 1-(1-methyl-1H-pyrazol-4-yl)-3-[({3-[1-(piperidin-4-yl)-1H-pyrazol-4-yl]quinolin-6-yl}oxy)methyl]pyridazin-4(1H)-one] |
| < 100 nM | CCOc1cnc2ccc(OCc3nn(-c4ccc(F)c(F)c4)ccc3=O)cc2c1 [Example 46, 1-(3,4-difluorophenyl)-3-{[(3-ethoxyquinolin-6-yl)oxy]methyl}pyridazin-4(1H)-one] |
| < 100 nM | CCOc1cnc2ccc(OCc3nn(-c4cnn(C)c4)ccc3=O)cc2c1 [Example 23, 3-{[(3-Ethoxyquinolin-6-yl)oxy]methyl}-1-(1-methyl-1H-pyrazol-4-yl)pyridazin-4(1H)-one] |
| < 100 nM | Cn1cc(-n2ccc(=O)c(COc3ccc4ncc(-c5cccnc5)cc4c3)n2)cn1 [Example 74, 1-(1-Methyl-1H-pyrazol-4-yl)-3-{[(3-pyridin-3-ylquinolin-6-yl)oxy]methyl}pyridazin-4(1H)-one] |
| < 100 nM | Cn1cc(-n2ccc(=O)c(COc3ccc4ncc(F)cc4c3)n2)cn1 [Example 37, 3-{[(3-fluoroquinolin-6-yl)oxy]methyl}-1-(1-methyl-1H-pyrazol-4-yl)pyridazin-4(1H)-one] |
| < 100 nM | Cn1cc(-n2ccc(=O)c(COc3ccc4ncsc4c3)n2)cn1 [Example 105, 3-[(1,3-Benzothiazol-6-yloxy)methyl]-1-(1-methyl-1H-pyrazol-4-yl)pyridazin-4(1H)-one] |

The next lines start with the compound.

| Compound | IC50 |
| --- | --- |
| COCCOc1cnc2ccc(OCc3nn(-c4cc(Cl)cc(C#N)c4)ccc3=O)cc2c1 [Example 29, 3-chloro-5-[3-({[3-(2-methoxyethoxy)quinolin-6-yl]oxy}methyl)-4-oxopyridazin-1(4H)-yl]benzonitrile] | < 100 nM |
| COCCOC(=O)Nc1ccc(OCc2nn(-c3cnn(C)c3)ccc2=O)cc1 [Example 119, 2-methoxyethyl (4-{[1-(1-methyl-1H-pyrazol-4-yl)-4-oxo-1,4-dihydropyridazin-3-yl]methoxy}phenyl)carbamate] | 1000 to 3000 nM |
| Cn1cc(-n2ccc(=O)c(COc3ccc4ncc(NC(=O)Nc5cnc6ccc(OCc7nn(-c8cnn(C)c8)ccc7=O)cc6c5)cc4c3)n2)cn1 [Example 111, 1,3-bis(6-{[1-(1-methyl-1H-pyrazol-4-yl)-4-oxo-1,4-dihydropyridazin-3-yl]methoxy}quinolin-3-yl)urea] | < 100 nM |
| Cn1cc(-n2ccc(=O)c(CCc3ccc4ncccc4c3)n2)cn1 [Example 53, 1-(1-Methyl-1H-pyrazol-4-yl)-3-[2-(quinolin-6-yl)ethyl]pyridazin-4(1H)-one] | < 100 nM |
| COc1ccnc2ccc(C(C)Oc3nn(-c4cnn(C)c4)ccc3=O)cc12 (single isomer, unassigned) [Example 145, 3-[1-(4-methoxyquinolin-6-yl)ethoxy]-1-(1-methyl-1H-pyrazol-4-yl)pyridazin-4(1H)-one] | < 100 nM |
| CC(Oc1nn(-c2cnn(C)c2)ccc1=O)c1ccc2ncccc2c1 (stereo not drawn) [Example 130, 1-(1-methyl-1H-pyrazol-4-yl)-3-(1-quinolin-6-ylethoxy)pyridazin-4(1H)-one] | 100 to 1000 nM |
| Cn1cc(-n2ccc(=O)c(NCc3ccc4ncccc4c3)n2)cn1 [Example 147, 1-(1-methyl-1H-pyrazol-4-yl)-3-[(quinolin-6-ylmethyl)amino]pyridazin-4(1H)-one] | 100 to 1000 nM |
| COc1ccnc2ccc(CCc3nn(-c4cnn(C)c4)ccc3=O)cc12 [Example 59, 3-[2-(4-methoxyquinolin-6-yl)ethyl]-1-(1-methyl-1H-pyrazol-4-yl)pyridazin-4(1H)-one] | < 100 nM |
| Cn1cc(-n2ccc(=O)c(CCc3ccnc4ccccc34)n2)cn1 [Example 54, 1-(1-methyl-1H-pyrazol-4-yl)-3-(2-quinolin-4-ylethyl)pyridazin-4(1H)-one] | 1000 to 3000 nM |
| O=c1ccn(-c2cc(F)c(F)c(F)c2)nc1COc1ccc2ncccc2c1 [Example 10, 3-[(quinolin-6-yloxy)methyl]-1-(3,4,5-trifluorophenyl) pyridazin-4(1H)-one] | < 100 nM |
| CC(C)COC(=O)Nc1ccc(OCc2nn(-c3cnn(C)c3)ccc2=O)cc1 [Example 123, 2-methylpropyl (4-{[1-(1-methyl-1H-pyrazol-4-yl)-4-oxo-1,4-dihydropyridazin-3-yl]methoxy}phenyl)carbamate] | 1000 to 3000 nM |
| CC(Oc1nn(-c2cnn(C)c2)ccc1=O)c1ccc2ncccc2c1 (single isomer, unassigned) [Example 138, 1-(1-methyl-1H-pyrazol-4-yl)-3-(1-quinolin-6-ylethoxy)pyridazin-4(1H)-one] | 100 to 1000 nM |
| CC(Nc1nn(-c2cnn(C)c2)ccc1=O)c1ccc2ncccc2c1 (stereo not drawn) [Example 148] | < 100 nM |
| Cn1cc(-n2ccc(=O)c(COc3ccc4ncc5c(c4c3)OCCO5)n2)cn1 [Example 107, 3-[(2,3-dihydro[1,4]dioxino[2,3-c]quinolin-9-yloxy)methyl]-1-(1-methyl-1H-pyrazol-4-yl)pyridazin-4(1H)-one] | < 100 nM |
| Cn1cc(-n2ccc(=O)c(CSc3ccc4ncccc4c3)n2)cn1 [Example 101, 1-(1-Methyl-1H-pyrazol-4-yl)-3-[(quinolin-6-ylsulfanyl)methyl]pyridazin-4(1H)-one] | < 100 nM |
| C=C(Cc1nn(-c2cnn(C)c2)ccc1=O)c1ccc2ncccc2c1 [Example 124, 1-(1-Methyl-1H-pyrazol-4-yl)-3-(2-quinolin-6-ylprop-2-en-1-yl)pyridazin-4(1H)-one] | 100 to 1000 nM |
| COc1cnc2ccc(C(C)Oc3nn(-c4cnn(C)c4)ccc3=O)cc2c1 (single isomer, unassigned) [Example 140, 3-[1-(3-methoxyquinolin-6-yl)ethoxy]-1-(1-methyl-1H-pyrazol-4-yl)pyridazin-4(1H)-one] | < 100 nM |
